We go through 17 compounds from patent publication US20240335541A1, “NANOMATERIALS COMPRISING DIAMINES” (Beam Therapeutics Inc., priority 2021, published 2024).

Common to all, as to type: physicochemical
The nature of data set [1]: LNP encapsulation efficiency by Ribogreen assay (Example 16 LNPs). The settings on record: Example 16 LNPs: 47.5% Ionizable Lipid: 40% cholesterol: 2.5% PEG-2000 DMG: 10% DPSC, N/P 4-8. As to the method:
(§1) LNPs were prepared with 47.5% Ionizable Lipid (e.g., a compound provided herein): 40% cholesterol: 2.5% PEG-2000 DMG: 10% DPSC and an N/P ratio range of 4-8. LNPs were formed by microfluidic mixing of the lipid and NA solutions using a Precision Nanosystems NanoAssemblr Spark or Benchtop series Instruments, according to the manufacturer's protocol. A ratio of aqueous to organic solvent of approximately 2:1 or 3:1 was maintained during mixing using differential flow rates. After mixing, LNPs were collected, diluted in phosphate buffer saline (PBS) or Tris-buffered saline (TBS) (approximately 1:1 v/v). Further buffer exchange was conducted using dialysis in PBS or TBS at 4° C. for 4 to 24 hours against a 20 kDa filter. After this initial dialysis, each individual LNP preparation was characterized via dynamic light scattering (DLS) to measure the size (e.g., diameter) and polydispersity. LNPs falling within specific diameter and polydispersity ranges were pooled, and further dialyzed against PBS or TBS at 4° C. for 1 to 4 hours against a 100 kDa dialysis cassette. After the second dialysis, LNPs were sterile filtered using 0.22 μm filter and stored at 4° C. for further use.
RNA concentration and encapsulation efficiency were determined by Ribogreen assay (BioTek Synergy LX plate reader).

Data set [2] can be described thus: LNP hydrodynamic diameter and PDI by DLS (Example 16 LNPs, Stunner). The settings on record: Example 16 LNPs: 47.5% Ionizable Lipid: 40% cholesterol: 2.5% PEG-2000 DMG: 10% DPSC, N/P 4-8. As to the method:
as §1
LNP hydrodynamic diameter and polydispersity index (PDI) were measured using high throughput dynamic light scattering (DLS) (Stunner, Unchained Labs). LNPs were diluted 1×TBS or PBS to an appropriate concentration and analyzed.

Data set [3] is described as follows: LNP encapsulation efficiency, unlysed vs lysed LNPs, Qubit kit (Example 1 LNPs). The settings on record: LNPs prepared according to Example 1; total lipid to NA mass ratio 11.7. As to the method: Concentration of NA was determined by Qubit microRNA kit (for siRNA) or HS RNA kit (for mRNA) per manufacturer's instructions. Encapsulation efficiency was determined by measuring nucleic acid concentration in unlysed and lysed LNPs. Encapsulation efficiency was determined by measuring unlysed and lysed LNPs.

A short description of data set [4]: LNP hydrodynamic diameter and polydispersity by DLS (Example 1 LNPs). The settings on record: LNPs prepared according to Example 1, total lipid to NA mass ratio 11.7. The protocol: LNPs were prepared with a total lipid to NA mass ratio of 11.7. LNPs were formed by microfluidic mixing of the lipid and NA solutions using a Precision Nanosystems NanoAssemblr Spark or Benchtop series Instruments, according to the manufacturers protocol. A ratio of aqueous to organic solvent of approximately 2:1 or 3:1 was maintained during mixing using differential flow rates. After mixing, LNPs were collected, diluted in PBS (approximately 1:1 v/v). Further buffer exchange was conducted using dialysis in PBS at 4° C. for 4 to 24 hours against a 20 kDa filter. After this initial dialysis, each individual LNP preparation was characterized via dynamic light scattering (DLS) to measure the size (e.g., diameter) and polydispersity. In addition, pKa of a subpopulation of LNPs was measured via a 2-(p-toluidino)-6-napthalene sulfonic acid (TNS) assay. LNPs falling within specific diameter and polydispersity ranges are pooled, and further dialyzed against phosphate buffer saline (PBS) at 4° C. for 1 to 4 hours against a 100 kDa dialysis cassette. After the second dialysis, LNPs were sterile filtered using […] filter and stored at 4° C. for further use.
DLS-LNP hydrodynamic diameter and polydispersity index (PDI) were measured using high throughput dynamic light scattering (DLS) (DynaPro plate reader II, Wyatt). LNPs were diluted 1×PBS to an appropriate concentration and analyzed.
Lipid nanoparticle components were dissolved in 100% ethanol at specified lipid component molar ratios. Nucleic acid (NA) cargo was dissolved in 10 mM citrate, 100 mM NaCl, pH 4.0, resulting in a concentration of NA cargo of approximately 0.22 mg/mL. In some embodiments, NA cargos included both a functional NA and a reporter DNA barcode mixed at mass ratios of 1:10 to 10:1 functional NA to barcode. LNPs were formulated with a total lipid to NA mass ratio of 11.7. LNPs were formed by microfluidic mixing of the lipid and NA solutions using a Precision Nanosystems NanoAssemblr Spark or Benchtop series Instruments, according to the manufacturer's protocol. A 2:1 or 3:1 ratio of aqueous to organic solvent was maintained during mixing using differential flow rates. After mixing, LNPs were collected, diluted in PBS (approximately 1:1 v/v), and further buffer exchange was conducted using dialysis in PBS at 4° C. for 8 to 24 hours against a 20 kDa filter. After this initial dialysis, each individual LNP formulation was characterized via DLS to measure the size and polydispersity, and the pKa of a subpopulation of LNPs is measured via TNS assay. After dialysis, LNPs were sterile filtered using 0.22 micron sterile filter and stored at 4° C. for further use.
LNP hydrodynamic diameter and polydispersity index (PDI) were measured using high throughput dynamic light scattering (DLS) (DynaPro plate reader II, Wyatt). LNPs were diluted 1×PBS to an appropriate concentration and analyzed.

As to `CC/C=C\CCCCOC(CCC(=O)OCCCCCCN(CCO)CCCN(CCCCCCOC(=O)CCC(OCCCC/C=C\CC)OCCCC/C=C\CC)CCCCCCOC(=O)CCC(OCCCC/C=C\CC)OCCCC/C=C\CC)OCCCC/C=C\CC` [Example 7-1], the “Mean Encapsulation Efficiency” value in data set [1] worked out at 80.8%. Moreover, in data set [2], the “Mean Diameter” value is on record as 90.2 nm and the “Mean PDI” value is 0.12.
For `CC/C=C\CCCCOC(CCC(=O)OCCCCCCN(CCCCCCOC(=O)CCC(OCCCC/C=C\CC)OCCCC/C=C\CC)CCCN(CCO)CCCCCCCC(=O)OCCCCCCCCC)OCCCC/C=C\CC` [Example 7-3, ((3-((2-hydroxyethyl)(8-(nonyloxy)-8-oxooctyl)amino)propyl)azanediyl)bis(hexane-6,1-diyl) bis(4,4-bis(((Z)-oct-5-en-1-yl)oxy)butanoate)] the same measures were 85.1%, 69.1 nm and 0.13.
For `CC/C=C\CCCCOC(CCC(=O)OCCCCCCN(CCO)CCCN(CCCCCC(=O)OCCCCCCCCC)CCCCCC(=O)OCCCCCCCCC)OCCCC/C=C\CC` [Example 7-5, dinonyl 6,6′-((3-((6-((4,4-bis(((Z)-oct-5-en-1-yl)oxy)butanoyl)oxy)hexyl)(2-hydroxyethyl)amino)propyl)azanediyl)dihexanoate] the same measures were 49.0%, 81.3 nm and 0.12.
As for `CC/C=C\CCCCOC(CCC(=O)OCCCCCCN(CCO)CCCN(CCCCCCCC(=O)OCCCCCCCCC)CCCCCCCC(=O)OCCCCCCCCC)OCCCC/C=C\CC` [Example 7-6], the “Mean Encapsulation Efficiency” value in data set [1] stood at 46.0%. In data set [2], the “Mean Diameter” value was 85.7 nm and the “Mean PDI” value is recorded as 0.10.
In the case of `CC/C=C\CCCCOC(CCC(=O)OCCCCCCN(CCO)CCCN(CCCCCCOC(=O)C(CCCC)CCCCCC)CCCCCCOC(=O)C(CCCC)CCCCCC)OCCCC/C=C\CC` (stereo not drawn) [Example 7-7], the “Mean Encapsulation Efficiency” value in data set [1] turned out to be 57.4%. For the same compound, in data set [2], the “Mean Diameter” value was found to be 83.4 nm and the “Mean PDI” value amounted to 0.08.
For `CC/C=C\CCCCOC(CCC(=O)OCCCCCCCN(CCO)CCCN(CCCCCCOC(=O)C(CCCC)CCCCCC)CCCCCCOC(=O)C(CCCC)CCCCCC)OCCCC/C=C\CC` (stereo not drawn) [Example 7-9] the same measures were 69.4%, 89.2 nm and 0.11.
Turning to `CC/C=C\CCCCOC(CCC(=O)OCCCCCCCN(CCO)CCN(CCCCCCCOC(=O)CCC(OCCCC/C=C\CC)OCCCC/C=C\CC)CCCCCCCOC(=O)CCC(OCCCC/C=C\CC)OCCCC/C=C\CC)OCCCC/C=C\CC` [Example 7-11], in data set [3], the “Mean Encapsulation Efficiency” value was found to be 96.4%. In data set [4], the “Mean Diameter” value came to 79.8 nm and the “Mean PDI” value is 9.4%.
Take `CC/C=C\CCCCOC(CCC(=O)OCCCCCCN(CCCO)CCN(CCCCCCOC(=O)CCC(OCCCC/C=C\CC)OCCCC/C=C\CC)CCCCCCOC(=O)CCC(OCCCC/C=C\CC)OCCCC/C=C\CC)OCCCC/C=C\CC` [Example 7-16]: in data set [1], the “Mean Encapsulation Efficiency” value was determined as 81.8%. Also, in data set [2], the “Mean Diameter” value was found to be 91.3 nm and the “Mean PDI” value was found to be 0.11.
As for `CC/C=C\CCCCOC(CCC(=O)OCCCCCCCN(CCCO)CCN(CCCCCCCOC(=O)CCC(OCCCC/C=C\CC)OCCCC/C=C\CC)CCCCCCCOC(=O)CCC(OCCCC/C=C\CC)OCCCC/C=C\CC)OCCCC/C=C\CC` [Example 7-17], in data set [3], the “Mean Encapsulation Efficiency” value turned out to be 97.2%. For the same compound, in data set [4], the “Mean Diameter” value came to 85.9 nm and the “Mean PDI” value came to 10.8%.
Take `CC/C=C\CCCCOC(CCC(=O)OCCCCCCN(CCCO)CCN(CCCCCCOC(=O)C(CCCC)CCCCCC)CCCCCCOC(=O)C(CCCC)CCCCCC)OCCCC/C=C\CC` (stereo not drawn) [Example 7-20]: the “Mean Encapsulation Efficiency” value in data set [1] worked out at 71.4%. Besides, in data set [2], the “Mean Diameter” value turned out to be 97.0 nm and the “Mean PDI” value is 0.17.
For `CC/C=C\CCCCOC(CCC(=O)OCCCCCCN(CCCO)CCN(CCCCCCCCCOC(=O)C(CCCC)CCCCCC)CCCCCCCCCOC(=O)C(CCCC)CCCCCC)OCCCC/C=C\CC` (stereo not drawn) [Example 7-21], in that order: 60.9%, 87.1 nm and 0.12.
For `CC/C=C\CCCCOC(CCC(=O)OCCCCCCCN(CCCCCCCOC(=O)CCC(OCCCC/C=C\CC)OCCCC/C=C\CC)CCCN(CCO)CCCCCCCCCOC(=O)C(CCCC)CCCCCC)OCCCC/C=C\CC` (stereo not drawn) [Example 7-24, ((3-((9-((2-butyloctanoyl)oxy)nonyl)(2-hydroxyethyl)amino)propyl)azanediyl)bis(heptane-7,1-diyl) bis(4,4-bis(((Z)-oct-5-en-1-yl)oxy)butanoate)] the same measures were 72.4%, 92.7 nm and 0.12.
As for `CC/C=C\CCCCOC(CCC(=O)OCCCCCCCN(CCO)CCCN(CCCCCCCCCOC(=O)C(CCCC)CCCCCC)CCCCCCCCCOC(=O)C(CCCC)CCCCCC)OCCCC/C=C\CC` (stereo not drawn) [Example 7-25], the “Mean Encapsulation Efficiency” value in data set [1] came to 62.8%. Besides, in data set [2], the “Mean Diameter” value stood at 92.4 nm and the “Mean PDI” value is recorded as 0.13.
As for `CC/C=C\CCCCOC(CCC(=O)OCCCCCCCN(CCCCCCCOC(=O)CCC(OCCCC/C=C\CC)OCCCC/C=C\CC)CCN(CCO)CCCCCCCCCOC(=O)C(CCCC)CCCCCC)OCCCC/C=C\CC` (stereo not drawn) [Example 7-26, ((2-((9-((2-butyloctanoyl)oxy)nonyl)(2-hydroxyethyl)amino)ethyl)azanediyl)bis(heptane-7,1-diyl) bis(4,4-bis(((Z)-oct-5-en-1-yl)oxy)butanoate)], the “Mean Encapsulation Efficiency” value in data set [1] is given as 69.2%. Further, in data set [2], the “Mean Diameter” value is listed as 82.5 nm and the “Mean PDI” value is given as 0.12.
For `CC/C=C\CCCCOC(CCC(=O)OCCCCCCCN(CCCO)CCN(CCCCCCCCCOC(=O)C(CCCC)CCCCCC)CCCCCCCCCOC(=O)C(CCCC)CCCCCC)OCCCC/C=C\CC` (stereo not drawn) [Example 7-27] the same measures were 63.3%, 81.7 nm and 0.11.
In the case of `CC/C=C\CCCCOC(CCC(=O)OCCCCCCCN(CCCCCCCOC(=O)CCC(OCCCC/C=C\CC)OCCCC/C=C\CC)CCCN(CCCO)CCCCCCCC(=O)OCCCCCCCCC)OCCCC/C=C\CC` [Example 7-28, ((3-((3-hydroxypropyl)(8-(nonyloxy)-8-oxooctyl)amino)propyl)azanediyl)bis(heptane-7,1-diyl) bis(4,4-bis(((Z)-oct-5-en-1-yl)oxy)butanoate)], the “Mean Encapsulation Efficiency” value in data set [1] was 49.6%. In addition, in data set [2], the “Mean Diameter” value is 98.8 nm and the “Mean PDI” value came out at 0.11.
Take `CC/C=C\CCCCOC(CCC(=O)OCCCCCCCN(CCCO)CCCN(CCCCCCCOC(=O)CCC(OCCCC/C=C\CC)OCCCC/C=C\CC)CCCCCCCOC(=O)CCC(OCCCC/C=C\CC)OCCCC/C=C\CC)OCCCC/C=C\CC` [Example 7-29]: the “Mean Encapsulation Efficiency” value in data set [1] is given as 83.2%. For the same compound, in data set [2], the “Mean Diameter” value is listed as 95.4 nm and the “Mean PDI” value stood at 0.13.
